The text below walks through data of patent US20250042922A1, “KRAS MODULATING COMPOUNDS” (priority 2023, published 2025).

The term IC50 denotes the concentration at which inhibition is half-maximal. A higher IC50 goes with weaker potency. One may read the EC50 as the concentration giving half of the maximal effect.

Experiment [1] has as its target GDP-loaded wild-type KRAS (WT) (Homo sapiens, UniProt P01116). The experiment can be described thus: KRAS (GDP) biochemical TR-FRET probe displacement assay, WT. The format is binding. Conditions: 2 hours. The method, then: (§1) Compounds are tested for binding to GDP-loaded wild-type KRAS (WT), KRAS-G12C, KRAS-G12D, and KRAS-G12V in a 384-well assay format using a TR-FRET probe displacement assay in buffer consisting of 50 mM Hepes (pH 7.4), 150 mM NaCl, 5 mM MgCl2 and 0.005% Tween-20. […] Compounds are serially diluted (1:3) in DMSO. The LabCyte ECHO Acoustic dispenser was used to pre-spot the assay plates (384-well Non-Binding Surface plates, Corning, Catalog #3824) with 50 nL of compound. 5 μL of 2X enzyme concentration is added to the pre-spotted plates and incubated for 30 minutes before adding 5 μL of 2X concentration of Eu-streptavidin and Cy-5 labelled probe (10 μL final reaction volume). The plates are incubated at room temperature for 2 hours before measuring TR-FRET ratio (665 nm/615 nm) on the Envision multimode plate reader. The ratios are normalized to a positive (saturating concentration of known inhibitor) and negative (DMSO) control and plotted against the log of compound concentration.
For orientation: Time-resolved FRET reads energy transfer from a long-lived donor to a nearby acceptor.

A further experiment concerns the target GDP-loaded KRAS-G12C (Homo sapiens, UniProt P01116, G12C). The experiment can be described thus: KRAS (GDP) biochemical TR-FRET probe displacement assay, G12C. The format is binding. The conditions noted are these: 2 hours. The method, then:
as §1

The test system of experiment [2] is cellular pERK in ASPC-1 (KRAS G12D) cells. The experiment can be described thus: Cell based pERK assay, ASPC-1. Conditions: Homo sapiens, ASPC1; ASPC-1 (KRAS G12D), 2 hours incubation, HTRF phospho-ERK1/2; read-out: AsPC1 pERK EC50. The method in brief:
(§2)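 Cells seeded overnight (5000 AsPC-1 or 7500 others per well; RPMI/10% FBS, DMEM/10% FBS for MIA-PaCa-2), treated with 1:3 serial dilutions for 2 h at 37 °C. Phospho-ERK1/2 (Thr202/Tyr204) measured by HTRF (665/615 nm) after overnight lysis, normalized to DMSO and saturating known-inhibitor controls.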

In the next experiment the target is GDP-loaded KRAS-G12D (Homo sapiens, UniProt P01116, G12D). The experiment can be described thus: KRAS (GDP) biochemical TR-FRET probe displacement assay, G12D. The format is binding. The conditions noted are these: 2 hours. The method, then: as §1
The target in a further experiment is GDP-loaded KRAS-G12V (Homo sapiens, UniProt P01116, G12V). The experiment can be described thus: KRAS (GDP) biochemical TR-FRET probe displacement assay, G12V. The experiment is classed as binding. Conditions: 2 hours. The protocol:
as §1

Experiment [3] concerns cellular pERK in Kuramochi (WT KRAS) cells. The experiment can be described thus: Cell based pERK assay, Kuramochi. The conditions noted are these: Kuramochi (WT KRAS), 2 hours incubation, HTRF phospho-ERK1/2; read-out: Kuramochi pERK EC50. The method in brief: as §2
Experiment [4] concerns cellular pERK in MIA-PaCa-2 (KRAS-G12C) cells. The experiment can be described thus: Cell based pERK assay, MIA-PaCa-2. The conditions noted are these: Homo sapiens; MIA-PaCa-2 (KRAS-G12C), 2 hours incubation, HTRF phospho-ERK1/2; read-out: MIAPaCa2 pERK EC50. The method in brief:
as §2

Experiment [5] concerns cellular pERK in NCI-H441 (KRAS-G12V) cells. The experiment can be described thus: Cell based pERK assay, NCI-H441. Conditions: Homo sapiens; NCI-H441 (KRAS-G12V), 2 hours incubation, HTRF phospho-ERK1/2; read-out: H441 PERK EC50. The method in brief: as §2

The structures appear in SMILES notation.

Chain of GDP-loaded KRAS-G12C (P01116 1-188 isoform P01116-2 G12C): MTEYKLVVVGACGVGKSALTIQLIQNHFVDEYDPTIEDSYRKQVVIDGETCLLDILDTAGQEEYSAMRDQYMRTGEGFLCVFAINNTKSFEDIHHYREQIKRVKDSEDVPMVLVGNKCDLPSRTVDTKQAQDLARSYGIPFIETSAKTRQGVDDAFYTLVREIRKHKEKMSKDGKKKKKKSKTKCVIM
Chain of GDP-loaded KRAS-G12V (P01116 1-188 isoform P01116-2 G12V): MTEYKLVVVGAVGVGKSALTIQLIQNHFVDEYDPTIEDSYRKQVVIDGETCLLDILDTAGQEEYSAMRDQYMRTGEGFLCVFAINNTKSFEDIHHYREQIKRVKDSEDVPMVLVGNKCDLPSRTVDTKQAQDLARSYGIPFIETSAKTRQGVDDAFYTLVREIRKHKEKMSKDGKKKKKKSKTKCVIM
Chain of GDP-loaded KRAS-G12D (P01116 1-188 isoform P01116-2 G12D): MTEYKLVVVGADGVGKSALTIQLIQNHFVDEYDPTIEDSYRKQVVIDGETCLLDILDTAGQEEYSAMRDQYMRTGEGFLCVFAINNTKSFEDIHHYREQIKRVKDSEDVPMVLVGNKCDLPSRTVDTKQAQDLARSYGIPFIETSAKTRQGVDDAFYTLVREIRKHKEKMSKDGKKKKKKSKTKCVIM
Chain of GDP-loaded wild-type KRAS (WT) (P01116 1-188 isoform P01116-2): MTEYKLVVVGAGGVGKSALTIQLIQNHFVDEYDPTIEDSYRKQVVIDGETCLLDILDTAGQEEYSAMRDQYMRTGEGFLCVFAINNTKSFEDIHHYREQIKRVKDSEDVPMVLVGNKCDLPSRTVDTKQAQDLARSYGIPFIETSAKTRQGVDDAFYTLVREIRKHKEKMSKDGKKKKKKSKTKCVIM

As for `Cc1c(F)c(N)cc(-c2nc3c4c(nc(OC[C@@]56CCCN5C[C@H](F)C6)nc4c2F)N2C[C@@]4(F)CC[C@](F)(N4)[C@H]2CCC3)c1C(F)(F)F` [Example 4-4], the IC50 in experiment [1] is 25.8 nM; on GDP-loaded KRAS-G12C it was 46.7 nM; at GDP-loaded KRAS-G12D, over 100 nM; on GDP-loaded KRAS-G12V it was 45.1 nM. The EC50 is 175 nM in experiment [2], 15.4 nM in experiment [3], 59.4 nM in experiment [4] and 884 nM in experiment [5].

In the case of `CCC1CCCc2cc(N)cc(-c3nc4c5c(nc(OCC67CCCN6CCC7)nc5c3F)N3C[C@@]5(F)CC[C@](F)(N5)[C@H]3CCC4)c21` (stereo partly drawn) [Example 4-24, 5-ethyl-4-((6aR,7R,10S)-1,7,10-trifluoro-13-((tetrahydro-1H-pyrrolizin-7a(5H)-yl)methoxy)-5,6,6a,7,8,9,10,11-octahydro-4H-3,11a,12,14,15-pentaaza-7,10-methanocyclohepta[4,5]cycloocta[1,2,3-de]naphthalen-2-yl)-5,6,7,8-tetrahydronaphthalen-2-amine], the IC50 (in experiment [1]; on GDP-loaded KRAS-G12C; on GDP-loaded KRAS-G12D; at GDP-loaded KRAS-G12V) was over 100 nM throughout. Also, the EC50 in experiment [2] is over 1000 nM; in experiment [3], 312 nM; in experiment [4], 560 nM.

For the molecule `C#Cc1c(F)ccc2cc(N)cc(-c3nc4c5c(nc(OC[C@@]67CCCN6[C@H](COC(C(F)(F)F)(C(F)(F)F)C(F)(F)F)CC7)nc5c3F)N3C[C@@]5(F)CC[C@](F)(N5)[C@H]3CCC4)c12` [Example 4-28, 5-ethynyl-6-fluoro-4-((6aR,7R,10S)-1,7,10-trifluoro-13-(((3S,7aS)-3-(((1,1,1,3,3,3-hexafluoro-2-(trifluoromethyl)propan-2-yl)oxy)methyl)tetrahydro-1H-pyrrolizin-7a(5H)-yl)methoxy)-5,6,6a,7,8,9,10,11-octahydro-4H-3,11a,12,14,15-pentaaza-7,10-methanocyclohepta[4,5]cycloocta[1,2,3-de]naphthalen-2-yl)naphthalen-2-amine], the IC50 in experiment [1] was determined as 4.98 nM; at GDP-loaded KRAS-G12C, 7.3 nM; on GDP-loaded KRAS-G12D it was 59.4 nM; on GDP-loaded KRAS-G12V it was 44.8 nM. The values for the half-maximal effective concentration (EC50) in experiment [2], in experiment [3] and in experiment [4] were 117 nM, 7.5 nM and 5.6 nM, respectively.

For `C#Cc1c(F)ccc2cccc(-c3nc4c5c(nc(OCC67CCCN6CCC7)nc5c3F)N3C[C@@]5(F)CC[C@](F)(N5)[C@H]3CCC4)c12` [Example 4-29, (6aR,7R,10S)-2-(8-ethynyl-7-fluoronaphthalen-1-yl)-1,7,10-trifluoro-13-((tetrahydro-1H-pyrrolizin-7a(5H)-yl)methoxy)-5,6,6a,7,8,9,10,11-octahydro-4H-3,11a,12,14,15-pentaaza-7,10-methanocyclohepta[4,5]cycloocta[1,2,3-de]naphthalene], the IC50 in experiment [1] amounted to 5.99 nM; on GDP-loaded KRAS-G12C, 8.68 nM; at GDP-loaded KRAS-G12D it was 38.1 nM; at GDP-loaded KRAS-G12V it was 24.8 nM. Moreover, the EC50 in experiment [2] is 305 nM; in experiment [3], 6.37 nM; in experiment [4], 12.8 nM.

Regarding `C[C@H]1Cc2nc(-c3cc(N)cc4ccc(F)c(F)c34)c(F)c3nc(OCC45CCCN4CCC5)nc(c23)N2C[C@@]3(F)CC[C@](F)(N3)[C@H]12` [Example 5-1, 5,6-difluoro-4-((5S,5aS,6R,9S)-1,6,9-trifluoro-5-methyl-12-((tetrahydro-1H-pyrrolizin-7a(5H)-yl)methoxy)-4,5,5a,6,7,8,9,10-octahydro-3,10a,11,13,14-pentaaza-6,9-methanonaphtho[1,8-ab]heptalen-2-yl)naphthalen-2-amine], the IC50 in experiment [1] is 0.271 nM; at GDP-loaded KRAS-G12C it was 1.71 nM; on GDP-loaded KRAS-G12D, 16 nM; on GDP-loaded KRAS-G12V, 7.42 nM. Moreover, the results for the EC50 in experiment [2], in experiment [3] and in experiment [4] were 62.5 nM, 2.2 nM and 2.34 nM, respectively.
